Experimental data from patent US10336762B2 (priority 2017, dated 2019).
Like-named read-outs stand apart in the source and are kept apart here.

How the values were obtained:
[1] = target: IRAK4 enzyme (Homo sapiens (Human), UniProt Q9NWZ3); experiment: biochemical; format: biochemical; details: IRAK4 enzyme, 500 μM ATP
[2] = tested on: TNFα; experiment: cells; format: cell-based, human; details: Homo sapiens, Monocyte, LPS-stimulated human monocytes, read-out: EC50 TNF

Sequence of IRAK4 enzyme (Q9NWZ3 whole entry): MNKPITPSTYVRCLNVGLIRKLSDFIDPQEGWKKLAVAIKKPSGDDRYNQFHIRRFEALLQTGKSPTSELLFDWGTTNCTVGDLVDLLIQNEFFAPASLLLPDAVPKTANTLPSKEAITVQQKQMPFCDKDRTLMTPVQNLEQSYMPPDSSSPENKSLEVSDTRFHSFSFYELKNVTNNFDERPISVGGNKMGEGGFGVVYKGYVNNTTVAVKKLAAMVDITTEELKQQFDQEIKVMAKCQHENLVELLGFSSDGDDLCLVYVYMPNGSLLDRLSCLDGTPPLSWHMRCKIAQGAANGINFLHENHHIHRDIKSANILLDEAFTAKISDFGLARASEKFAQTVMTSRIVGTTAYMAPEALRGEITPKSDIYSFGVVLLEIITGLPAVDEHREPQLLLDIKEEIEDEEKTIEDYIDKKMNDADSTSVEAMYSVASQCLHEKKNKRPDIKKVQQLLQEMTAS

SMILES: [2H]C([2H])([2H])OC(=O)NC[C@H]1C[C@H](Nc2cc(-c3ccc4cc(C#N)cnn34)ncc2C(=O)NC[C@@H](F)C(C)(C)O)C1 [Example 867, methyl-d3 (((1R,3r)-3-((2-(3-cyanopyrrolo[1,2-b]pyridazin-7-yl)-5-(((R)-2-fluoro-3-hydroxy-3-methylbutyl)carbamoyl)pyridin-4-yl)amino)cyclo-butyl)methyl)carbamate]
- IC50 ([1]; TR-FRET): < 1 nM
- EC50 ([2]; TNFα by TR-FRET): 6 nM

SMILES: CC(C)(O)[C@H](F)CNC(=O)c1cnc(-c2ccc3cc(C#N)cnn23)cc1Nc1cncc(F)c1 [Example 600, (R)-6-(3-cyano-pyrrolo[1,2-b]pyridazin-7-yl)-N-(2-fluoro-3-hydroxy-3-methylbutyl)-4-((5-fluoropyridin-3-yl)amino)nicotinamide]
- IC50 ([1]; TR-FRET (HTRF)): < 1 nM
- EC50 ([2]; TNFα content): 72 nM

SMILES: CC(C)(O)[C@H](F)CNC(=O)c1cnc(-c2ccc3cc(C#N)cnn23)cc1NC1CCC1 [Example 117, (R)-6-(3-cyanopyrrolo[1,2-b]pyridazin-7-yl)-4-(cyclobutyl-amino)-N-(2-fluoro-3-hydroxy-3-methylbutyl) nicotinamide]
- IC50 ([1]; TR-FRET): < 1 nM
- EC50 ([2]; TNFα content): 47 nM

SMILES: N#Cc1cnn2c(-c3cc(Nc4cnc5c(c4)OCCO5)c(C(=O)N[C@H]4CC[C@H](NC(=O)C5CC5)CC4)cn3)ccc2c1 [Example 858, 6-(3-cyanopyrrolo[1,2-b]pyridazin-7-yl)-N-((1r,4r)-4-(cyclopropanecarboxamido)cyclohexyl)-4-((2,3-dihydro-[1,4]dioxino[2,3-b]pyridin-7-yl)amino)nicotinamide]
- IC50 ([1]; TR-FRET): < 1 nM
- EC50 ([2]; TNFα by TR-FRET): 20 nM

SMILES: CC(=O)NC[C@H]1CN(c2ccc(Nc3cc(-c4ccc5cc(C#N)cnn45)ncc3C(=O)NC[C@@H](F)C(C)(C)O)cn2)CCO1 [Example 886, 4-((6-((S)-2-(acetamido-methyl)morpholino)pyridin-3-yl)amino)-6-(3-cyano-pyrrolo[1,2-b]pyridazin-7-yl)-N-((R)-2-fluoro-3-hydroxy-3-methylbutyl) nicotinamide]
- IC50 ([1]; TR-FRET): 2 nM
- EC50 ([2]; TNFα by TR-FRET): 29 nM

SMILES: CC(C)(O)[C@H](F)CNC(=O)c1cnc(-c2ccc3cc(C#N)cnn23)cc1Nc1cncc(C2CC2)c1 [Example 222, (R)-6-(3-cyanopyrrolo[1,2-b]pyridazin-7-yl)-4-((5-cyclopropylpyridin-3-yl)amino)-N-(2-fluoro-3-hydroxy-3-methylbutyl)nicotinamide]
- IC50 ([1]; TR-FRET): 1 nM
- EC50 ([2]; TNFα content): 151 nM

SMILES: CC(C)Nc1cc(-c2ccc3cc(C#N)cnn23)ncc1C(=O)NC1CCC(S(C)(=O)=O)CC1 (stereo not drawn) [Example 521, 6-(3-cyanopyrrolo[1,2-b]pyridazin-7-yl)-4-(iso-propylamino)-N-(4-(methylsulfonyl)cyclohexyl) nicotinamide]
- IC50 ([1]; TR-FRET (HTRF)): 62 nM
- EC50 ([2]; TNFα content): 717 nM

SMILES: CN1CCOc2cc(Nc3cc(-c4ccc5cc(C#N)cnn45)ncc3C(=O)NC[C@@H](F)C(C)(C)O)cnc21 [Example 856, (R)-6-(3-cyanopyrrolo[1,2-b]pyridazin-7-yl)-N-(2-fluoro-3-hydroxy-3-methylbutyl)-4-((4-methyl-3,4-dihydro-2H-pyrido[3,2-b][1,4]oxazin-7-yl)amino)nicotinamide]
- IC50 ([1]; TR-FRET): 1 nM
- EC50 ([2]; TNFα by TR-FRET): 24 nM

SMILES: COC(=O)NC12CC(Nc3cc(-c4ccc5cc(C#N)cnn45)ncc3C(=O)NC[C@@H](F)C(C)(C)O)(C1)C2 [Example 507, (R)-methyl (3-((2-(3-cyanopyrrolo[1,2-b]pyridazin-7-yl)-5-((2-fluoro-3-hydroxy-3-methylbutyl)carbamoyl)pyridin-4-yl)amino)bicyclo[1.1.1]pentan-1-yl)carbamate]
- IC50 ([1]; TR-FRET (HTRF)): < 1 nM
- EC50 ([2]; TNFα content): 27 nM

SMILES: CC(=O)NCc1cccc(Nc2cc(-c3ccc4cc(C#N)cnn34)ncc2C(=O)NC[C@@H](F)C(C)(C)O)c1 [Example 220, (R)-4-((3-(acetamidomethyl)phenyl)amino)-6-(3-cyanopyrrolo[1,2-b]pyridazin-7-yl)-N-(2-fluoro-3-hydroxy-3-methylbutyl)nicotinamide]
- IC50 ([1]; TR-FRET): 1 nM
- EC50 ([2]; TNFα content): 123 nM

SMILES: CN(C)C(=O)N1CCC(Nc2cc(-c3ccc4cc(C#N)cnn34)ncc2C(=O)NC[C@@H](F)C(C)(C)O)CC1 [Example 243, (R)-6-(3-cyanopyrrolo[1,2-b]pyridazin-7-yl)-4-((1-(dimethylcarbamoyl)piperidin-4-yl)amino)-N-(2-fluoro-3-hydroxy-3-methylbutyl)nicotinamide]
- IC50 ([1]; TR-FRET): 2 nM
- EC50 ([2]; TNFα content): 218 nM

SMILES: CN1C(=O)C(C)(C)c2ccc(Nc3cc(-c4ccc5cc(C#N)cnn45)ncc3C(=O)NC[C@@H](F)C(C)(C)O)cc21 [Example 652, (R)-6-(3-cyanopyrrolo[1,2-b]pyridazin-7-yl)-N-(2-fluoro-3-hydroxy-3-methylbutyl)-4-((1,3,3-trimethyl-2-oxoindolin-6-yl)amino)nicotinamide]
- IC50 ([1]; TR-FRET (HTRF)): 2 nM
- EC50 ([2]; TNFα content): 188 nM

SMILES: CC1(F)CN(C(=O)C23CCC(Nc4cc(-c5ccc6cc(C#N)cnn56)ncc4C(=O)NC[C@@H](F)C(C)(C)O)(CC2)CC3)C1 [Example 394, (R)-6-(3-cyanopyrrolo[1,2-b]pyridazin-7-yl)-N-(2-fluoro-3-hydroxy-3-methylbutyl)-4-((4-(3-fluoro-3-methylazetidine-1-carbonyl)bicyclo[2.2.2]octan-1-yl)amino) nicotinamide]
- IC50 ([1]; TR-FRET): 1 nM
- EC50 ([2]; TNFα content): 68 nM

SMILES: CC(C)(O)[C@H](F)CNC(=O)c1cnc(-c2ccc3cc(C#N)cnn23)cc1N[C@H]1CC[C@H](c2cnco2)CC1 [Example 630, 6-(3-cyanopyrrolo[1,2-b]pyridazin-7-yl)-N-((R)-2-fluoro-3-hydroxy-3-methylbutyl)-4-(((1r,4R)-4-(oxazol-5-yl)cyclohexyl)amino)nicotinamide]
- IC50 ([1]; TR-FRET (HTRF)): < 1 nM
- EC50 ([2]; TNFα content): 9 nM

SMILES: CNC(=O)[C@H](C)Nc1cc(-c2ccc3cc(C#N)cnn23)ncc1C(=O)NC[C@@H](F)C(C)(C)O [Example 108, 6-(3-cyanopyrrolo[1,2-b]pyridazin-7-yl)-N-((R)-2-fluoro-3-hydroxy-3-methylbutyl)-4-(((S)-1-(methylamino)-1-oxopropan-2-yl)amino) nicotinamide]
- IC50 ([1]; TR-FRET): 88 nM
- EC50 ([2]; TNFα content): > 10000 nM

SMILES: N#Cc1cnn2c(-c3cc(NC45CCC(O)(CC4)CC5)c(C(=O)N[C@@H]4CCCNC4=O)cn3)ccc2c1 [Example 958, (R)-6-(3-cyanopyrrolo[1,2-b]pyridazin-7-yl)-4-((4-hydroxybicyclo[2.2.2]octan-1-yl)amino)-N-(2-oxo-piperidin-3-yl)nicotinamide]
- IC50 ([1]; TR-FRET): 1 nM
- EC50 ([2]; TNFα by TR-FRET): 219 nM

SMILES: CC(C)(O)[C@H](F)CNC(=O)c1cnc(-c2ccc3cc(C#N)cnn23)cc1N[C@H]1CC[C@@H](N)C1 [Example 310, 4-(((1S,3R)-3-aminocyclopentyl)amino)-6-(3-cyanopyrrolo[1,2-b]pyridazin-7-yl)-N-((R)-2-fluoro-3-hydroxy-3-methylbutyl)nicotinamide]
- IC50 ([1]; TR-FRET): 2 nM
- EC50 ([2]; TNFα content): 362 nM

SMILES: COC(=O)NC1(c2ccc(Nc3cc(-c4ccc5cc(C#N)cnn45)ncc3C(=O)N[C@H]3CC[C@H](NC(=O)C4CC4)CC3)cc2)CC1 [Example 866, methyl (1-(4-((2-(3-cyano-pyrrolo[1,2-b]pyridazin-7-yl)-5-(((1r,4r)-4-(cyclopropanecarboxamido)cyclohexyl)carbamoyl)pyridin-4-yl)amino)phenyl)cyclopropyl)carbamate]
- IC50 ([1]; TR-FRET): 1 nM
- EC50 ([2]; TNFα by TR-FRET): 37 nM
